“Also recorded” adds a separate entry of the source. Some results are limits rather than exact numbers.

In data set [1] the target is T1, rat KCa2.2a (UniProt P0DP23+P70604).
T1 construct: expressed in transfected cells; host or cells: HEK293
Description: Inside-out patch-clamp potentiation of KCa2.2a channels expressed in HEK293 cells. It is filed as cell-based. As to conditions: for Emax: current at −90 mV at maximal compound concentration normalized to 10 μM Ca2+, read-out: Emax on KCa2.2a channels (I/Imax); for EC50: HEK293, 0.15 μM Ca2+, current at −90 mV, read-out: EC50 (mean ± SEM, μM) on potentiating KCa2.2a channels; for efficacy (Emax) on KCa2.2a channels: normalized to 10 μM Ca2+. Here is the method: The impact of adding one substituent group at C4 of the cyclohexane moiety of CyPPA with either electron donating (OH (2a), NH2 (2b), CH2OH (2c), and OCH3 (2d)) or electron-withdrawing groups (F (2e) and NO2 (2f)) was explored. The potency of the newly synthesized compounds compared to the template CyPPA was measured via inside-out patch clamp electrophysiology recordings with KCa2.2a channels heterologously expressed in HEK293 cells (FIG. 1A). […] The responses induced by 10 μM Ca^2+ are considered the maximal currents of the KCa2.2a channels. To evaluate the efficacy (Emax) of compounds on KCa2.2a channels, the current amplitudes at −90 mV in response to the maximal concentration of compounds were normalized to that obtained at 10 μM Ca^2+ (I/Imax (%), FIG. 1C).
The effect of newly synthesized compounds on the KCa2.x/KCa3.1 channels was investigated as previously described (Nam, Y. W.; et al, Acta Physiol (Oxf) 2020, e13552; Nam, Y. W.; et al. Scientific reports 2018, 8 (1), 10749). Briefly, the rat KCa2.2a, human KCa2.1, human KCa2.3 or human KCa3.1 channels cDNA constructs were either generated in-house or through molecular cloning services (Genscript). The channel cDNAs, along with CaM and GFP, at a ratio of 7:4:2 (ORF ratios), were transfected into HEK293 cells by the calcium-phosphate method. KCa currents were recorded 1-2 days after transfection, with an Axon200B amplifier (Molecular Devices) at room temperature. The resistance of the patch electrodes ranged from 3-5 MΩ. The pipette solution contained (in mM): 140 KCl, 10 Hepes (pH 7.4), 1 MgSO4. The bath solution containing (in mM): 140 KCl, 10 Hepes (pH 7.2), 1 EGTA, 0.1 Dibromo-BAPTA, and 1 HEDTA was mixed with Ca^2+ to obtain the desired free Ca^2+ concentrations, calculated using the software by Chris Patton of Stanford University (https://somapp.ucdmc.ucdavis.edu/pharmacology/bers/maxchelator/webmaxc/webmaxcS.htm). The Ca^2+ concentrations were verified using a Ca^2+ calibration buffer kit (Thermo Fisher Scientific). Briefly, a standard curve was generated using the Ca^2+ buffers from the kit and a fluorescence Ca^2+ indicator. Then, the Ca^2+ concentrations of the bath solution were determined through interpolation on the standard curve.
High resistance seals (>1 GΩ) were formed before inside-out patches were obtained. The seal resistance of inside-out patches was >1 GΩ, when the intracellular face was initially exposed to a zero-Ca^2+ bath solution. Currents were recorded by repetitive 1-s-voltage ramps from −100 mV to +100 mV from a holding potential of 0 mV. The currents were filtered at 2 kHz and digitized at a sampling frequency of 10 kHz. At the end of experiment, the integrity of the patch was examined by switching the bath solution back to the zero-Ca^2+ buffer. Data from patches, which maintained the seal resistance (>1 GΩ) after solution changes, were used for further analysis.
To measure the effect of CyPPA (Alomone Labs) and newly synthesized compounds, the intracellular face was exposed to bath solutions with 0.15 μM Ca^2+. One minute after switching of bath solutions, ten sweeps with a 1-s interval were recorded at a series of concentrations of compound in the presence of 0.15 μM Ca^2+. The maximal KCa2.x/KCa3.1 current in response to 10 μM Ca^2+ was then recorded.
Patch-clamp recordings were analyzed using Clampfit 10.5 (Molecular Devices LLC) and concentration-response curves were analyzed in GraphPad Prism 9.0.2 (GraphPad Software Inc.). To construct the concentration-dependent potentiation of channel activities by compound, the current amplitudes at −90 mV in response to various concentrations of the compound were normalized to that obtained at a maximal concentration of compound. The normalized currents were plotted as a function of the concentrations of the compound. EC50 values and Hill coefficients were determined by fitting the data points to a standard concentration-response curve (Y=100/(1+(X/EC50)^−Hill)). […]
A general note: In patch-clamp work, channel activity is measured electrically.

The target in data set [2] is T1, rat KCa2.2a. As to conditions: KCa2.2/KCa2.3 vs KCa2.1/KCa3.1; cited from earlier work.
A further data set concerns the target T2, human KCa2.3 channels (Homo sapiens, UniProt P0DP23+Q9UGI6).
T2 construct: expressed in transfected cells; host or cells: HEK293
As to conditions: cited from earlier work.

Data set [3] is described as follows: Solubility noted during patch-clamp concentration-response. It is filed as physicochemical. As to conditions: bath solution, 200 μM.

`Cc1cc(NC2CCCCC2)nc(-n2nc(C)cc2C)n1` [CyPPA, N-cyclohexyl-2-(3,5-dimethyl-1H-pyrazol-1-yl)-6-methylpyrimidin-4-amine]: the Emax on rat KCa2.2a [1] (HEK293) is 82.4 ± 4.91%. Moreover, the EC50 (usually the concentration that produces a half-maximal response) on rat KCa2.2a [1] (inside-out patch) stood at 7.48 ± 0.56 µM. The “subtype selectivity, previously reported” value at rat KCa2.2a [2] was “selectively potentiates KCa2.2a and KCa2.3, but not KCa2.1 and KCa3.1 channel subtypes; also recorded: potentiate the KCa2.2 and KCa2.3, but not the KCa2.1 and KCa3.1 channel subtypes”. Also, the “potency on KCa2.3 compared to KCa2.2a channels, background statement” value on human KCa2.3 channels is “slightly but significantly higher potency on KCa2.3 channels than KCa2.2a channels”.

`Cc1cc(Nc2cc(C(=O)O)ccc2F)nc(-n2nc(C)cc2C)n1` [Compound 2v, 3-((2-(3,5-Dimethyl-1H-pyrazol-1-yl)-6-methylpyrimidin-4-yl)amino)-4-fluorobenzoic acid]: the “solubility” value in data set [3] is recorded as “limited solubility at 200 μM”. In addition, the Emax on rat KCa2.2a [1] (HEK293) worked out at 50 ± 5.78%. Also, at rat KCa2.2a [1] (inside-out patch), the half-maximal effective concentration (EC50) is 37.6 ± 3.66 µM. Also, at rat KCa2.2a [1], the “efficacy (Emax) on KCa2.2a channels” value was “reduced efficacy”.

For the molecule `Cc1cn(-c2nc(C)cc(Nc3cc(Cl)ccc3F)n2)cn1` [Compound 5a, N-(5-Chloro-2-fluorophenyl)-6-methyl-2-(4-methyl-1H-imidazol-1-yl)pyrimidin-4-amine], the EC50 at rat KCa2.2a [1] (inside-out patch) was found to be 4.51 ± 0.44 µM. At rat KCa2.2a [1], the “efficacy (Emax) on KCa2.2a channels” value is recorded as “retained their efficacy”.

Take `Cc1cc(NC(Cc2ccc(F)c(F)c2)C(=O)O)nc(-n2nc(C)cc2C)n1` (stereo not shown) [Compound 2j, 3-(3,4-Difluorophenyl)-2-((2-(3,5-dimethyl-1H-pyrazol-1-yl)-6-methylpyrimidin-4-yl)amino)propanoic acid]: the EC50 at rat KCa2.2a [1] (inside-out patch) was more than 100 µM.

For `Cc1cc(Nc2ccc(C(F)(F)F)cc2)nc(-n2nc(C)cc2C)n1` [Compound 2s, 2-(3,5-Dimethyl-1H-pyrazol-1-yl)-6-methyl-N-(4-(trifluoromethyl)-phenyl)pyrimidin-4-amine], the “activity / potency on KCa2.2a channels” value at rat KCa2.2a [1] (inside-out patch, HEK293) is on record as “did not significantly change the potency compared with CyPPA”. Besides, on rat KCa2.2a [1] (inside-out patch), the EC50 is 3.45 ± 0.42 µM.

For `Cc1cc(NC2CCC([N+](=O)[O-])CC2)nc(-n2nc(C)cc2C)n1` (stereo not shown) [Compound 2f, 2-(3,5-Dimethyl-1H-pyrazol-1-yl)-6-methyl-N-(4-nitrocyclohexyl)pyrimidin-4-amine], the EC50 at rat KCa2.2a [1] (inside-out patch) was more than 100 µM.

For the molecule `Cc1cc(NC2CCC(N)CC2)nc(-n2nc(C)cc2C)n1` (stereo not shown) [Compound 2b, N^1-(2-(3,5-Dimethyl-1H-pyrazol-1-yl)-6-methylpyrimidin-4-yl)cyclohexane-1,4-diamine], on rat KCa2.2a [1] (inside-out patch), the EC50 is more than 100 µM.

Turning to “N^1-(3-Chloro-4-fluorophenyl)-6-(3,5-dimethyl-1H-pyrazol-1-yl)pyrimidine-2,4-diamine [Compound 3b]”, at rat KCa2.2a [1] (inside-out patch), the EC50 was more than 100 µM.

(Values after patent US12312333B2, “SK channel positive allosteric modulators” (Chapman University, priority 2021, dated 2025).)
